Data: the supplement of paper PMC10307832

Columns and labels:
Experiment in all cases: relative viability (nuclei count vs DMSO), 5 days (fraction); higher = more cells survive
Sorafenib + Bortezomib = compound: CNC(=O)c1cc(Oc2ccc(NC(=O)Nc3ccc(Cl)c(C(F)(F)F)c3)cc2)ccn1 [Sorafenib] + CC(C)C[C@H](NC(=O)[C@H](Cc1ccccc1)NC(=O)c1cnccn1)B(O)O [Bortezomib] (partner 0.002 µM)
How it was run: (§1)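 Relative viability was taken as the ratio of nuclei in treated wells to nuclei in vehicle wells. Lung cancer cell lines in 1536-well plates received compounds by pin tool one day after seeding, either one drug alone or a fixed anchor-drug dose plus five library-drug doses (not always all listed) in √10 steps. Nuclei were counted on 4× images after 5 days of treatment, and values are medians of duplicate plates.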

Sorafenib + Alpelisib = compound: CNC(=O)c1cc(Oc2ccc(NC(=O)Nc3ccc(Cl)c(C(F)(F)F)c3)cc2)ccn1 [Sorafenib] + Cc1nc(NC(=O)N2CCC[C@H]2C(N)=O)sc1-c1ccnc(C(C)(C)C(F)(F)F)c1 [Alpelisib] (partner 2 µM)
How it was run: as §1

Sorafenib + Vorinostat = compound: CNC(=O)c1cc(Oc2ccc(NC(=O)Nc3ccc(Cl)c(C(F)(F)F)c3)cc2)ccn1 [Sorafenib] + O=C(CCCCCCC(=O)Nc1ccccc1)NO [Vorinostat] (partner 1 µM)
How it was run: as §1

Sorafenib + Phenformin = compound: CNC(=O)c1cc(Oc2ccc(NC(=O)Nc3ccc(Cl)c(C(F)(F)F)c3)cc2)ccn1 [Sorafenib] + N=C(N)NC(=N)NCCc1ccccc1 [Phenformin] (partner 250 µM)
How it was run: as §1

Sorafenib + Luminespib = compound: CNC(=O)c1cc(Oc2ccc(NC(=O)Nc3ccc(Cl)c(C(F)(F)F)c3)cc2)ccn1 [Sorafenib] + CCNC(=O)c1noc(-c2cc(C(C)C)c(O)cc2O)c1-c1ccc(CN2CCOCC2)cc1 [Luminespib] (partner 0.01 µM)
How it was run: as §1

Cell Line | relative viability (Sorafenib + Bortezomib; first compound 0.08 µM) | relative viability (Sorafenib + Bortezomib; first compound 0.253 µM) | relative viability (Sorafenib + Bortezomib; first compound 2.53 µM) | relative viability (Sorafenib + Bortezomib; first compound 8 µM) | relative viability (Sorafenib + Alpelisib; first compound 0.08 µM) | relative viability (Sorafenib + Alpelisib; first compound 0.253 µM) | relative viability (Sorafenib + Alpelisib; first compound 2.53 µM) | relative viability (Sorafenib + Alpelisib; first compound 8 µM) | relative viability (Sorafenib + Vorinostat; first compound 0.08 µM) | relative viability (Sorafenib + Vorinostat; first compound 0.253 µM) | relative viability (Sorafenib + Vorinostat; first compound 2.53 µM) | relative viability (Sorafenib + Vorinostat; first compound 8 µM) | relative viability (Sorafenib + Phenformin; first compound 0.08 µM) | relative viability (Sorafenib + Phenformin; first compound 0.253 µM) | relative viability (Sorafenib + Phenformin; first compound 2.53 µM) | relative viability (Sorafenib + Phenformin; first compound 8 µM) | relative viability (Sorafenib + Luminespib; first compound 0.08 µM) | relative viability (Sorafenib + Luminespib; first compound 0.253 µM) | relative viability (Sorafenib + Luminespib; first compound 2.53 µM) | relative viability (Sorafenib + Luminespib; first compound 8 µM)
UMC-11 | 0.609 | 0.627 | 0.702 | 0.231 | 0.999 | 0.959 | 0.968 | 0.529 | 0.395 | 0.422 | 0.379 | 0.36 | 0.316 | 0.301 | 0.24 | 0.155 | 1.03 | 1.03 | 1 | 0.182
LC-2-ad | 1.25 | 1.01 | 0.914 | 0.618 | 1.02 | 0.863 | – | 0.678 | 0.723 | 0.674 | 0.617 | 0.514 | 0.595 | 0.495 | 0.613 | 0.453 | 1.01 | 1.04 | 1.06 | 0.879
LU99A | 1.21 | 1.12 | 1.06 | 0.714 | 0.58 | 0.435 | 0.468 | 0.453 | 0.487 | 0.445 | 0.437 | 0.192 | 0.978 | 0.864 | 0.748 | 0.408 | 0.359 | 0.25 | 0.204 | 0.318
NCI-H2023 | 1.2 | 1.02 | 0.945 | 0.319 | 0.659 | 0.603 | 0.613 | 0.438 | 0.954 | 0.571 | 0.599 | 0.339 | 0.51 | 0.395 | 0.374 | 0.174 | 0.828 | 0.761 | 0.826 | 0.136
NCI-H2342 | – | – | – | – | – | – | – | – | 0.806 | 0.628 | 0.689 | 0.645 | 0.67 | 0.487 | 0.528 | 0.381 | 0.662 | 0.637 | 0.597 | 0.582
NCI-H1944 | – | – | – | – | 0.882 | 0.909 | 1.01 | 0.706 | 0.539 | 0.497 | 0.626 | 0.417 | 0.207 | 0.188 | 0.21 | 0.144 | 0.697 | 0.634 | – | 0.552
NCI-H1395 | – | – | – | – | 1.26 | – | 0.981 | 0.695 | 0.872 | – | 1.06 | 0.748 | 0.51 | 0.407 | 0.453 | 0.392 | 0.742 | 0.703 | 0.576 | 0.53
HCC-366 | 1.05 | 0.98 | 0.991 | 0.831 | 0.563 | 0.484 | 0.429 | 0.307 | 0.315 | 0.343 | 0.256 | 0.22 | 0.598 | 0.507 | 0.539 | 0.559 | – | – | – | –
ChaGo-K-1 | 1.18 | 0.781 | 1.16 | 0.451 | – | – | – | – | 0.737 | 0.689 | 0.775 | 0.557 | 0.552 | 0.405 | 0.469 | 0.299 | 0.708 | 0.446 | 0.606 | 0.325
HCC-78 | 0.517 | 0.427 | – | 0.585 | 0.373 | 0.297 | 0.367 | 0.423 | 0.459 | 0.331 | 0.532 | 0.496 | 0.812 | 0.598 | – | 0.713 | – | – | – | –
NCI-H2170 | – | – | – | – | 0.792 | 0.843 | 0.865 | 0.754 | 0.842 | 0.665 | 0.856 | 0.576 | 0.403 | 0.437 | 0.43 | 0.361 | 0.527 | 0.707 | 0.706 | 0.592
NCI-H1793 | – | – | – | – | – | 0.727 | 1.01 | 0.511 | 0.783 | 0.739 | 1.05 | 0.578 | 0.453 | 0.329 | 0.418 | 0.293 | 0.23 | 0.207 | 0.199 | 0.187
NCI-H522 | – | – | – | – | – | – | – | – | 1.02 | 0.81 | 0.89 | 0.741 | 0.512 | 0.526 | 0.695 | 0.478 | 1.28 | 1.19 | 0.929 | 0.992
NCI-H358 | – | – | – | – | 1.06 | 1.12 | 0.934 | 0.337 | 0.666 | 0.712 | 0.594 | 0.208 | 0.442 | 0.392 | 0.468 | 0.146 | 0.242 | 0.285 | 0.295 | 0.239
LK-2 | – | – | – | – | 1.06 | – | 0.89 | 0.647 | 0.371 | 0.298 | 0.143 | 0.148 | 0.562 | 0.274 | 0.38 | 0.0899 | 0.228 | 0.197 | 0.175 | 0.172
SW 900 | – | – | – | – | – | – | – | – | 0.71 | 0.398 | 0.72 | 0.618 | 0.871 | 0.602 | 0.461 | 0.22 | 0.147 | 0.16 | 0.171 | 0.165
IA-LM | 0.704 | 0.363 | 0.458 | 0.408 | 0.714 | 0.547 | 0.431 | 0.442 | – | 0.647 | 0.436 | 0.508 | – | – | – | – | – | – | – | –
NCI-H1703 | 0.193 | 0.207 | 0.183 | 0.151 | 0.301 | 0.176 | 0.189 | 0.156 | – | – | – | – | – | – | – | – | – | – | – | –
NCI-H1792 | 1.02 | 0.957 | 0.958 | 0.92 | 0.704 | 0.622 | 0.657 | 0.664 | – | – | – | – | 0.199 | 0.309 | 0.234 | 0.181 | 0.438 | 0.358 | 0.534 | 0.353
NCI-H1650 | 0.239 | 0.217 | 0.225 | 0.212 | – | – | – | – | 0.505 | 0.567 | 0.633 | 0.424 | 0.557 | 0.456 | 0.564 | 0.164 | 0.183 | 0.183 | 0.193 | 0.209
